The values below come from PubChem BioAssay (NCI).

Broadly, the GI50 is the concentration at which growth is held to half of that of the control. The term TGI denotes the concentration giving total growth inhibition. Read a low TGI as more potent growth arrest.

Several values for one entry are separate records, joined by “and”; a condition that tells them apart may be missing. Equal entries are not always repeated.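 Growth conditions: 96-well plates. Treatment: test compound, 48 hours, 5 concentrations. Analysis: linear interpolation between bracketing concentrations; unreached endpoints set to highest concentration. The concentration for 50% growth inhibition is given as GI50. TGI denotes the concentration required for complete inhibition of growth.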

The subject of the assay is MDA-MB-468 breast. Put plainly: DTP human tumour cell line panel, 48 h.
`COc1ccc(S(=O)(=O)Nc2cc(/C=C\c3cc(OC)c(OC)c(OC)c3)cc(OC)c2OC)cc1OC`: the GI50 was 0.269 µM and the TGI was determined as 1.29 µM.

Take `COc1cc(-c2nn(C)nc2-c2cc3ccccc3s2)cc(OC)c1OC`: the GI50 was 0.0828 µM and the TGI was greater than 100 µM.

Take `COc1ccc(Nc2nc(NCc3ccccc3)c3ccccc3n2)cc1`: the GI50 is 1.61 µM and the TGI turned out to be 3.37 µM.

In the case of `O=C1OCC2=C1C(c1cccc([N+](=O)[O-])c1)c1cc3c(cc1N2CCO)CCC3` (centres undefined), the GI50 was 0.147 µM and the TGI was 8.88 µM.

For the molecule `Cc1cc(N2CCOCC2)nc(N(CCNc2ccnc3cc(Cl)ccc23)Cc2ccco2)n1`, the GI50 is 2.09 µM and the TGI came out at 6.41 µM.

Regarding `Cc1oncc1C(=O)Nc1ccc(C(F)(F)F)cc1`, the GI50 is 37.1 µM and the TGI is greater than 100 µM.

`O=C(/C=C\c1cccc([N+](=O)[O-])c1)c1ccccc1`: the GI50 was 1.65 µM and the TGI amounted to 9.51 µM.

With `C[C@H](Nc1ccc(C#N)n(C)c1=O)c1cc2cc(Cl)ccc2[nH]c1=O`, the GI50 is 21.6 µM and the TGI came to 84 µM.

`Cc1ccccc1NC(=O)N/C(N)=N/c1nc2ccccc2s1`: the GI50 was 0.233 µM and the total growth inhibition concentration (TGI) was greater than 100 µM.

For `CCCCCCCCCCCCCCCCCC(=O)[O][Sn]([CH2]CCC)([CH2]CCC)[CH2]CCC`, the GI50 is 0.0835 µM and the TGI turned out to be 0.214 µM.

With `CCS(=O)(=O)c1ccc(OC)c(Nc2ncc(-c3cccc(-c4ccccc4F)c3)o2)c1`, the GI50 was 4.95 µM and the TGI was greater than 25 µM.

Take `O=C(/C=C/c1ccccc1Cl)c1ccc(O)cc1`: the GI50 was 2.77 µM and the TGI was 13 µM.

Turning to `COC(=O)c1c2c(c[n+]([O-])c1C)C(=O)C(NCc1ccccc1)=CC2=O`, the GI50 is 0.232 µM and the TGI turned out to be 0.672 µM.

As to `C=CC[Se]C(=O)c1ccccc1OC(C)=O`, the GI50 is 1.78 µM and the TGI was 3.75 µM.

Regarding `CCc1ccc(/C(C#N)=C/C=C/c2ccccc2)cc1`, the GI50 is 0.838 µM and the TGI turned out to be 9.87 µM.

Turning to `CCCCN(CCCC)c1cc(C(=O)CCCCCN)c2ccccc2n1`, the GI50 was 1.43 µM and the total growth inhibition concentration (TGI) was determined as 3.05 µM.

On to `CCN(CC)CCC(CNc1c2ccc([N+](=O)[O-])cc2nc2cc(OC)c(OC)cc12)c1ccccc1` (centres undefined), for which the GI50 was 0.324 µM and 0.229 µM; the TGI was 1.63 µM and 1.22 µM.

Take `CN(C)c1cc2c(Nc3ccc4nc(Cc5ccccc5)[nH]c4c3)ncnc2cn1`: the GI50 is greater than 9.6 µM and the TGI is greater than 25 µM.

Regarding `O=C1OCC2=C1C(c1ccccc1)c1cc3c(cc1N2CCO)CCC3` (centres undefined), the GI50 is 0.0559 µM and the TGI worked out at 0.156 µM.

As for `O=Cc1ncc(-c2ccc(C(F)(F)F)cc2)c(NC2CCCCCC2)n1`, the GI50 is greater than 10 µM and the TGI is greater than 10 µM.

For `CC(C)[C@@H]1NC(=O)[C@]2(C)CSC(=N2)c2csc(n2)CNC(=O)C[C@@H](/C=C/CCS)OC1=O`, the GI50 was 0.206 µM and the TGI stood at 4.43 µM.

As to `CNC(=O)c1cc(Oc2ccc3nc(NC(=O)c4cc(C(F)(F)F)cc(C(F)(F)F)c4)sc3c2)ccn1`, the GI50 was 3.18 µM and the TGI is 14.2 µM.

In the case of `COc1cccc(N2CCN(c3ncnc4c3[nH]c3ccc(F)cc34)C[C@@H]2C)c1`, the GI50 is 1.59 µM and the TGI worked out at 5.31 µM.

For `CC1=C(CN(O)C(N)=O)C2=C(C)C3(CC3)[C@@](C)(O)C(=O)C2=C1`, the GI50 was 0.141 µM and the TGI was 0.347 µM.

Turning to `COC(=O)C1=C(C(=O)Nc2cccnc2)C2OC1(C(Cc1ccccc1)Oc1ccccc1)C1OC21` (centres undefined), the GI50 was 1.72 µM and the TGI is 4.25 µM.

Take `O=C(Nc1cccnc1)c1cccs1`: the GI50 was 0.603 µM and the TGI was greater than 100 µM.

On to `O=S(=O)(c1ccc2c(c1)C(=NO)c1cc(S(=O)(=O)N3CCCCC3)ccc1-2)N1CCCCC1`, for which the GI50 is 0.237 µM and 0.137 µM; the TGI is 0.608 µM and 0.277 µM.

With `O=C(Nc1cccc(-n2cc(-c3ccncc3)c(-c3cc(O)cc(Cl)c3)n2)c1)Nc1ccc(Cl)c(Cl)c1`, the GI50 was 1.71 µM and the TGI came out at 7.09 µM.

As to `Cn1c(=O)c(Sc2ccccc2F)cc2cnc(NC3CCOCC3)nc21`, the GI50 is greater than 25 µM and the TGI was greater than 25 µM.

Turning to `O=[N+]([O-])c1ccc(Oc2cccnc2)c([N+](=O)[O-])c1`, the GI50 was 3.06 µM and the TGI was 13.8 µM.

In the case of `N#Cc1cc(-c2ccccc2)[nH]c1-c1nccc2ccccc12`, the GI50 was 3.33 µM and the TGI amounted to 44.9 µM.

On to `COc1cc(C2=Nc3c/c(=C\c4c(O)[nH]c5ccc(Cl)cc45)ccc3=N2)cc(OC)c1OC`, for which the GI50 is 1.97 µM and the TGI stood at 4.41 µM.

As for `COc1c(Nc2ncc(Cl)c(N[C@@H]3[C@H]4C=CC(C4)[C@@H]3C(N)=O)n2)ccc2c1CC[C@@H](N1CCOCC1)CC2`, the GI50 is 2.2 µM and the TGI was determined as 8.13 µM.

For the molecule `CCN1CCN(CCNc2nccc(-c3c(-c4cccc(O)c4)nc4sccn34)n2)S1(=O)=O`, the GI50 was 9.04 µM and 12.5 µM; the TGI is 32.5 µM and 36.6 µM.

As for `C=C1C(=O)O[C@H]2[C@H]1CC/C(COC(=O)NCc1c[nH]c3ccc(OC)cc13)=C\CC[C@@]1(C)O[C@@H]21`, the GI50 was 1.32 µM and the TGI is 4.62 µM.

Regarding `O=C(O[C@H]1CN[C@H](C#Cc2cc3ncnc(Nc4ccc(Cc5ccccc5)cc4)c3s2)C1)N1CCOCC1`, the GI50 was 1.27 µM and the TGI came out at 6.37 µM.

For the molecule `Clc1ccc(N/N=C/c2ccccn2)nc1`, the GI50 is 0.26 µM and the concentration for total growth inhibition (TGI) stood at 1.51 µM.

Take `CN(C)c1cc2c(cc1Sc1nc3c(N)nccc3n1CCNCC(C)(C)C)OCO2`: the GI50 was 0.268 µM and the TGI stood at 0.888 µM.

On to `O=C(c1ccc(F)c(F)c1Nc1ccc(I)cc1F)N1CC(O)([C@H]2CCCCN2)C1`, for which the GI50 is 4.52 µM and the TGI is 10.7 µM.

As to `Cc1nc(NC(=O)COc2cccc(/C=C3\COc4ccccc4C3=O)c2)sc1C`, the GI50 was 1.76 µM and the TGI is 3.84 µM.

For the molecule `O=C(/C=C/c1ccccc1O)c1ccccc1`, the GI50 was 6.06 µM and the TGI was found to be 19.2 µM.

On to `Clc1ccc(-c2nc(-c3c[nH]c4ncccc34)cs2)cc1`, for which the GI50 was greater than 100 µM and the TGI was greater than 100 µM.

As to `NC(=O)c1ncn(C2OC(CO)C(O)C2O)n1` (centres undefined), the GI50 is 69.7 µM and the TGI is greater than 100 µM.

As for `NC(=O)Cc1ccccc1Oc1nccc(-c2c(-c3ccc(F)cc3)ncn2C2CCNCC2)n1`, the GI50 was 8.2 µM and the TGI was greater than 25 µM.

Take `CCNC(=O)Nc1ccc(-c2nc3c(c(N4CCOC[C@@H]4C)n2)CCN(C2COC2)C3)cc1`: the GI50 is 0.135 µM and 0.125 µM; the TGI is 1.72 µM and 1.38 µM.

On to `O=C(NNc1nc2cc(F)ccc2n2cccc12)c1ccncn1`, for which the GI50 was 0.293 µM and the TGI is 1.65 µM.

`C[C@H]1O[C@@H](O[C@H]2[C@@H](O)C[C@H](O[C@H]3[C@@H](O)C[C@H](O[C@H]4CC[C@]5(C)C6C[C@@H](O)[C@]7(C)[C@@H](C8=CC(=O)OC8)CC[C@]7(O)C6CC[C@@H]5C4)O[C@@H]3C)O[C@@H]2C)C[C@H](O)[C@@H]1O` (some centres undefined): the GI50 was 0.148 µM and the TGI amounted to 0.465 µM.

As to `Nc1cccc(-c2nc3sccn3c2-c2ccnc(NCCCNS(=O)(=O)c3ccc(C(F)(F)F)cc3)n2)c1`, the GI50 was 2.44 µM and the TGI was determined as 33.8 µM.

For `NCC(=O)Nc1ccc(-n2nc(C(F)(F)F)cc2-c2ccc3c(ccc4ccccc43)c2)cc1`, the GI50 was 1.56 µM and the TGI was 3.02 µM.

For `COc1cccc(C2=NN(C(C)=O)C(c3cc(OC)c(OC)c(OC)c3)C2)c1` (centres undefined), the GI50 was 1.01 µM and the TGI was greater than 30.9 µM.

With `CCOc1ccc(/C=N/Nc2cc(C)nc3ccc(Cl)cc23)cc1`, the GI50 is 1.73 µM and the TGI came to 3.27 µM.

As for `Clc1cccc(Cn2cc(Cc3cn(Cc4cccc(Cl)c4)c4ccccc34)c3ccccc32)c1`, the GI50 was 17 µM and the TGI was determined as 37.3 µM.
